Results published in ChEMBL document CHEMBL1201862, “PubChem BioAssay data set” (2004).
Active and inactive are the calls of the source.

Legend:
[1] = viability of uninfected HEp-2 cells – cell-based, HTS, cytotoxicity control for RSV inhibitor project, dose response (AID 2410); type: functional; details: human respiratory syncytial virus
Leucine aminopeptidase = target: T1, Leucine aminopeptidase (Plasmodium falciparum 3D7, UniProt Q8IL11); assay: P. falciparum M17LAP inhibitors, primary screen, biochemical, fluorogenic H-Leu-NHMec substrate, 1536-well (AID 1619); type: functional
T1 sequence (Q8IL11 whole entry): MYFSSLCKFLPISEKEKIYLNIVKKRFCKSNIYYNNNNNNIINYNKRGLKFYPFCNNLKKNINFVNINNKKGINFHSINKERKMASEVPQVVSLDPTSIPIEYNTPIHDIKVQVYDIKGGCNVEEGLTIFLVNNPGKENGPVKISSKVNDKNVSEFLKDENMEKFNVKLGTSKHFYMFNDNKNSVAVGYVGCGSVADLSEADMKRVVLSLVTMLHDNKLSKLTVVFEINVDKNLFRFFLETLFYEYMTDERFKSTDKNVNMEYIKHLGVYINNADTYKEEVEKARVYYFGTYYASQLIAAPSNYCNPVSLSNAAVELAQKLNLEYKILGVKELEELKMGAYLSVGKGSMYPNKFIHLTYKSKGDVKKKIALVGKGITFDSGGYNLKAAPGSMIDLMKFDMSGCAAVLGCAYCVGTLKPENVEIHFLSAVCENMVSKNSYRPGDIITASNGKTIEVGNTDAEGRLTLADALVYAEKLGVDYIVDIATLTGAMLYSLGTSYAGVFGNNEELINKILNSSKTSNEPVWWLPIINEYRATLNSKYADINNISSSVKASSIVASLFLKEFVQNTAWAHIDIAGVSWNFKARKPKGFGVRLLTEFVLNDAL

[2] = target: Voltage-dependent T-type calcium channel subunit alpha-1H (Homo sapiens, UniProt O95180); type: functional;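 further: channel activity triggered by adding a high calcium stimulation buffer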
Sequence of Voltage-dependent T-type calcium channel subunit alpha-1H (O95180 whole entry): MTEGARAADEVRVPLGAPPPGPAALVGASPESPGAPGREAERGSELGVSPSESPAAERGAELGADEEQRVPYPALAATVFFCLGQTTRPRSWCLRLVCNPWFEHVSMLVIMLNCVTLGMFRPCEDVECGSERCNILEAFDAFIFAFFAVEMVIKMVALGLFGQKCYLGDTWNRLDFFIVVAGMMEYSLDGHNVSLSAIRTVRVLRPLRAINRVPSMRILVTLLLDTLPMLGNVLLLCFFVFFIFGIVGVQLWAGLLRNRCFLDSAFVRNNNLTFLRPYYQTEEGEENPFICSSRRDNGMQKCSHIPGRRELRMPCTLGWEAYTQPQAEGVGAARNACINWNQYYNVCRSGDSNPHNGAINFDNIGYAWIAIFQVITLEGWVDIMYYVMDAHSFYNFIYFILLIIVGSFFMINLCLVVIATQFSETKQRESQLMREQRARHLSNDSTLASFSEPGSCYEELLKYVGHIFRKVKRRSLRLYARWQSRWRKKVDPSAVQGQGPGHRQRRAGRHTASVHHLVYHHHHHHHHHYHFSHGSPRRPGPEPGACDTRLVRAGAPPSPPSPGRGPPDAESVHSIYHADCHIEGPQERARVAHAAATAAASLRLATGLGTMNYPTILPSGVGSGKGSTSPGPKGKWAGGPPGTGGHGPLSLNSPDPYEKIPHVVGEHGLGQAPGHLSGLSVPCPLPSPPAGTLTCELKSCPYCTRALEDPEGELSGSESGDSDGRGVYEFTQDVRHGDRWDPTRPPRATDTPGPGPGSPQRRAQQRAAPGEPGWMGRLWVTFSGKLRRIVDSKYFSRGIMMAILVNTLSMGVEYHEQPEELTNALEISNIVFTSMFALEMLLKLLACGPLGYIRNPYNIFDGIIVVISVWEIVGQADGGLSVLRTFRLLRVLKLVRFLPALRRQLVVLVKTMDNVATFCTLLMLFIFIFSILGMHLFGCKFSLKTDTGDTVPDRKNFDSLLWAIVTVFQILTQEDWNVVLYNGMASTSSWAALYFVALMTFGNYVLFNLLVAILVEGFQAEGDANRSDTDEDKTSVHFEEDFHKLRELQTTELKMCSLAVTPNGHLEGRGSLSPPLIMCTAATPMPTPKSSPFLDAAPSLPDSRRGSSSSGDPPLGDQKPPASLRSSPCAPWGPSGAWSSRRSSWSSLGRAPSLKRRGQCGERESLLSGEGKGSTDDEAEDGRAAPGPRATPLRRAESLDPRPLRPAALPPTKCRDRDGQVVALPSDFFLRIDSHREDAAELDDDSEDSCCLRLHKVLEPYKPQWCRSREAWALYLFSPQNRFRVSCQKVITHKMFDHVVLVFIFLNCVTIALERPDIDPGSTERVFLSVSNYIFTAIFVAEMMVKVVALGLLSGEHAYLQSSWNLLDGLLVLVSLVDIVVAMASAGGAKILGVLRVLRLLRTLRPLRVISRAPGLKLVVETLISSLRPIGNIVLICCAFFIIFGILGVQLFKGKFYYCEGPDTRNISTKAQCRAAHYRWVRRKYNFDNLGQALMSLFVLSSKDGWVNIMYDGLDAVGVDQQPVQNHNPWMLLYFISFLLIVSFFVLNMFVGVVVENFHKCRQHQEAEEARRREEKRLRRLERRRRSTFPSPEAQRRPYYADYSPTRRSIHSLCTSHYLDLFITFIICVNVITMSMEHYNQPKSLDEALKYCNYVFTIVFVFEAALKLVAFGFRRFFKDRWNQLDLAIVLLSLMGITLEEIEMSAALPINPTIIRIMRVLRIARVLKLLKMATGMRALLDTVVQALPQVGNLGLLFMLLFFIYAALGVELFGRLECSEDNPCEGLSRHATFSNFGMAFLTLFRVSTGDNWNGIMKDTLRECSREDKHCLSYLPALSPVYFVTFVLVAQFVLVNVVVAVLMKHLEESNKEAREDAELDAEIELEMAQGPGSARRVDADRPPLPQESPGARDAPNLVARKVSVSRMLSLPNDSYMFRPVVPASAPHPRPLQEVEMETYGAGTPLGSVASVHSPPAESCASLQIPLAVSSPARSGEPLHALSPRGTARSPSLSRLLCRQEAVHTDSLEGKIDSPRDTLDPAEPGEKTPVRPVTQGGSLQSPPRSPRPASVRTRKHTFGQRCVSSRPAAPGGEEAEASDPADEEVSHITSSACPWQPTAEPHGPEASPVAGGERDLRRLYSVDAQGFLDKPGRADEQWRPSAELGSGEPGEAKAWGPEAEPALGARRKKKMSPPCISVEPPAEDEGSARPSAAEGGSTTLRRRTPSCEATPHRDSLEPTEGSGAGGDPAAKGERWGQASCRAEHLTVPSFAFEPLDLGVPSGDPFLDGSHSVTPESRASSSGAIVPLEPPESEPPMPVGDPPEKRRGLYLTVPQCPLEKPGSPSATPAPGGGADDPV

[3] = THP-1 cell cytotoxicity, dose response, cytotoxicity control for non-replicating M. tuberculosis project (AID 489025); type: functional
[4] = target: T2, Heat shock factor protein 1 (Mus musculus, UniProt P38532); assay: enhancement of HSF1-driven luciferase signal – cell-based, NIH3T3, luminescence, dose retest, confirmation (AID 435004); type: functional;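 further: stress induced by proteasome inhibitor MG132 added 30 min after compound; luciferase reporter driven by HSF1 response element in NIH3T3 cells; actives raise luminescence as potentiators of the MG132 stress response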
T2 sequence (P38532 whole entry): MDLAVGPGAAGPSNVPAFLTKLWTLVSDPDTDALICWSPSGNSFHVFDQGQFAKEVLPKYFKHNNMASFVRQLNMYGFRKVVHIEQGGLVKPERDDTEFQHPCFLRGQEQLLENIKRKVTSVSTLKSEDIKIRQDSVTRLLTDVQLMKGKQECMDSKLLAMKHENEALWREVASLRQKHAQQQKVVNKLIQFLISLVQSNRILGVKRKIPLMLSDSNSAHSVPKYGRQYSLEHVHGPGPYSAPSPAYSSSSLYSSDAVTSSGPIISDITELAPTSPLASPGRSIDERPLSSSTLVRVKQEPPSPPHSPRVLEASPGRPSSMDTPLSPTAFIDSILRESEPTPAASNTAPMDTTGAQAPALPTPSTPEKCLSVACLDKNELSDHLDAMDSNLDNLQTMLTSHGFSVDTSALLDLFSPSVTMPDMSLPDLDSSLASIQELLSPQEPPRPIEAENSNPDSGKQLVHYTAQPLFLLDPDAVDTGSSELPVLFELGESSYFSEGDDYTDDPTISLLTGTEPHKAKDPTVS

[5] = target: T3, Short transient receptor potential channel 4 (Mus musculus, UniProt Q9QUQ5); assay: block of DAMGO-driven TRPC4 calcium entry – cell-based, HEK293 TRPC4/mu-opioid, Fluo-4 calcium, dose response (AID 434942); type: functional;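 further: potency of inhibitors blocking the TRPC4 calcium response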
T3 sequence (Q9QUQ5 whole entry): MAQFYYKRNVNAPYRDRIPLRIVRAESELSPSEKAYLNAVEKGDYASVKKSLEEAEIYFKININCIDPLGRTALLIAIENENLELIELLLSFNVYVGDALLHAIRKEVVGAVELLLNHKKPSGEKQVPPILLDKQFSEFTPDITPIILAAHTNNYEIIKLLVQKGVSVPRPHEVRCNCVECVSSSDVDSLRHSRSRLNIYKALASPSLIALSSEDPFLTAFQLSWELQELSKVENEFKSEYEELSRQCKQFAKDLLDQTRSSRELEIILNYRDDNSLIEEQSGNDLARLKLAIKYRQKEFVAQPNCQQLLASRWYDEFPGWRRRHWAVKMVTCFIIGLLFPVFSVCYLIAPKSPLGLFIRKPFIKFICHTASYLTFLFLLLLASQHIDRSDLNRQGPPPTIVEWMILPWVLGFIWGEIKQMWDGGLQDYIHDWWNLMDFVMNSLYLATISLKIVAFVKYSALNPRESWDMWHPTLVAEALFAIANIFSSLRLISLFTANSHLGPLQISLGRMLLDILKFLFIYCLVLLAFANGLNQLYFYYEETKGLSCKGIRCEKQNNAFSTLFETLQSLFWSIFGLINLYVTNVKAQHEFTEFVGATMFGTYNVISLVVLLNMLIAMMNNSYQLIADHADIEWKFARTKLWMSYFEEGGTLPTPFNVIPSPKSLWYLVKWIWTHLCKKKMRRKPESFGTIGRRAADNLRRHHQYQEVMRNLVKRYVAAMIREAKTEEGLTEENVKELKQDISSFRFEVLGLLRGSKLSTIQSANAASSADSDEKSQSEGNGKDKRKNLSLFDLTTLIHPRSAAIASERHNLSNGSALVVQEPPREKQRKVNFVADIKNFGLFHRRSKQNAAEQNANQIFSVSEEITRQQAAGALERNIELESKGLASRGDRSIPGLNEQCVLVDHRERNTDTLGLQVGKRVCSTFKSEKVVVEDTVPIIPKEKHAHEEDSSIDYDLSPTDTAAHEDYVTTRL

Hexokinase = target: T4, Hexokinase (Trypanosoma brucei, UniProt Q38C41); assay: Confirmation assay for inhibitors of Trypanosoma brucei hexokinase 1-Analogue-first series. [Related pubchem assays (depositor defined):AID1430, AID1632, AID2516, AID2560, AID2579, AID2600, AID449725, AID492951]; type: functional
T4 sequence (Q38C41 whole entry): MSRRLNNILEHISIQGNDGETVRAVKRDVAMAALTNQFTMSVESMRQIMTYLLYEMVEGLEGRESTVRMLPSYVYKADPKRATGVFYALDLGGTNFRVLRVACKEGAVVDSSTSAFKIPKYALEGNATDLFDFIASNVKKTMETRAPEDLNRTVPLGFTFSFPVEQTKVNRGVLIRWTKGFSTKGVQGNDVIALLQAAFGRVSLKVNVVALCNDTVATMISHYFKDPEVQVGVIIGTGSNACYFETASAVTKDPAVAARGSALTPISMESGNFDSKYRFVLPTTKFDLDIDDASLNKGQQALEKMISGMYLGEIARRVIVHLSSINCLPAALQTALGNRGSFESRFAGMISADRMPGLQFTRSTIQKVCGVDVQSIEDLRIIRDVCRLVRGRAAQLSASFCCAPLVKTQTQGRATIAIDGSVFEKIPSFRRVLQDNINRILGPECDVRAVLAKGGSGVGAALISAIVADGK

Streptococcus = assay: GAS UMAA2166 growth inhibition – luminescence, BacTiterGlo, counter-screen for streptokinase expression inhibitor project, dose response (AID 1915); type: functional, organism-based;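 further: potency for reduction of bacterial viability or growth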
Streptokinase A = target: T5, Streptokinase A (Streptococcus pyogenes serotype M1, UniProt P10520); assay: viability-normalized secreted streptokinase activity reduction – plasminogen activation absorbance, OD405, dose response (AID 1914); type: functional, Streptococcus pyogenes M1 GAS;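 further: secreted streptokinase activity via plasminogen activation per viability signal from cell pellet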
T5 sequence (P10520 whole entry): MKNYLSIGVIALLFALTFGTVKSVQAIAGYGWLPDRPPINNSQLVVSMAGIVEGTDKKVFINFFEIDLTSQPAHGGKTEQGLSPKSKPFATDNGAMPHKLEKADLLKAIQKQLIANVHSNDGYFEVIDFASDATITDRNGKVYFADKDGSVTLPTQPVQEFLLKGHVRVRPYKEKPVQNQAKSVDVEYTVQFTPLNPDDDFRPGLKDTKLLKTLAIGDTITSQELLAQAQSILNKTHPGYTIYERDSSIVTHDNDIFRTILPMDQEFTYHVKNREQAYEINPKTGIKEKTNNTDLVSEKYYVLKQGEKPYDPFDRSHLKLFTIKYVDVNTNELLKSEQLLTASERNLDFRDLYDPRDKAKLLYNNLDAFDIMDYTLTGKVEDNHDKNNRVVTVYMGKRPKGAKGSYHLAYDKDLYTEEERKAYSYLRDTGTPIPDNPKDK

[6] = system: Streptococcus sp. 'group A'; assay: Streptococcus pyogenes SK(-)GAS viability under kanamycin – luminescence, BacTiterGlo, confirmation, counter-screen for streptokinase expression inhibitor project, dose response (AID 1900); type: functional, organism-based
[7] = target: T6, Rac GTPase-activating protein 1 (Homo sapiens, UniProt Q9H0H5); assay: blockers of MgcRacGAP-driven Rac1 GTP hydrolysis – biochemical, ADP Hunter fluorescence, primary and confirmatory, confirmation (AID 624330); type: functional
T6 sequence (Q9H0H5 whole entry): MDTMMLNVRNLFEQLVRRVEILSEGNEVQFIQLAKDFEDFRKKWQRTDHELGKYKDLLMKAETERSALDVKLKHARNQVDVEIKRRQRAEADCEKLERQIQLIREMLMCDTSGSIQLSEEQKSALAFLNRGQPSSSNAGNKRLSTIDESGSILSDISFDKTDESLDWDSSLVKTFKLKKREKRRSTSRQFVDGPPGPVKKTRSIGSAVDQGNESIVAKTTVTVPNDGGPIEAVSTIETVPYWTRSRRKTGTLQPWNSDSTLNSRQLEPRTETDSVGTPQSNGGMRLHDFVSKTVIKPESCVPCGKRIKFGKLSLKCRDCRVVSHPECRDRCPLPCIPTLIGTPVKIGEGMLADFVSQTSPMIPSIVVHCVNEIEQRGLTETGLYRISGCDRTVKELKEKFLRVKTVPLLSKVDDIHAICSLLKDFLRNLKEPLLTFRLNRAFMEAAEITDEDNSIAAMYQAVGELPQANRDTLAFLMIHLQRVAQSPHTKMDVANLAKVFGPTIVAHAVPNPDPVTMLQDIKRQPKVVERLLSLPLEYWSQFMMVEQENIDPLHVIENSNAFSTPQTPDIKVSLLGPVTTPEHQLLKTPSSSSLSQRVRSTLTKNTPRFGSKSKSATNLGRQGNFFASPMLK

Large T antigen = Large T antigen (Simian virus 40, UniProt P03070); type: functional, Betapolyomavirus macacae;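 further: Confirmatory-stage PubChem screen for compounds that inhibit SV40 T antigen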
Sequence of Large T antigen (P03070 whole entry): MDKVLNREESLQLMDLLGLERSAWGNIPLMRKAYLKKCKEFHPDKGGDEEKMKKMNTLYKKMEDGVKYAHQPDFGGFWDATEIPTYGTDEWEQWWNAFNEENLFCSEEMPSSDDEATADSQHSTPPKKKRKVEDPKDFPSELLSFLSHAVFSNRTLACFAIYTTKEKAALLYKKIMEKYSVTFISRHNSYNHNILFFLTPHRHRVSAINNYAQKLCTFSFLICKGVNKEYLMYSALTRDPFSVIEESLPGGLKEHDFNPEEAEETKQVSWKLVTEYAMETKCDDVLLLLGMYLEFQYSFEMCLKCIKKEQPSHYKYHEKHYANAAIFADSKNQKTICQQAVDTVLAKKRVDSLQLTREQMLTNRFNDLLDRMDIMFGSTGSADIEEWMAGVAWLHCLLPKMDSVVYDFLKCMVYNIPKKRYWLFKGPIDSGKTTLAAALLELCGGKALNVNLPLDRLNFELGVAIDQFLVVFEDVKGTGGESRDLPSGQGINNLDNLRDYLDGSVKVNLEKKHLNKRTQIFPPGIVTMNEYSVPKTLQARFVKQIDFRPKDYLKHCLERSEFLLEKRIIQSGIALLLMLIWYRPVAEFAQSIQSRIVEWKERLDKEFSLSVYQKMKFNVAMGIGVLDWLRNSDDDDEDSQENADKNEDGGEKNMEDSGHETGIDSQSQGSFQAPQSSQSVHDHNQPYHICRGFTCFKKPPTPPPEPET

[8] = target: FAD-linked sulfhydryl oxidase ALR (Homo sapiens, UniProt P55789); assay: ALR-catalysed DTT oxidation blockers – biochemical, H2O2 detection, luminescence, cherry-pick, dose response (AID 493248)
Sequence of FAD-linked sulfhydryl oxidase ALR (P55789 whole entry): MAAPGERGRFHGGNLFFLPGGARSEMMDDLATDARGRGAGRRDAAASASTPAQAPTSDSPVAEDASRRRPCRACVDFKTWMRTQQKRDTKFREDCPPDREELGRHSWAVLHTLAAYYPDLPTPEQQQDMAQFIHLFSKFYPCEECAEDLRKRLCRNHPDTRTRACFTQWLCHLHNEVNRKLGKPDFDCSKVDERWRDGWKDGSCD

COc1cc2c(cc1OC)C(C)N(C(=O)c1cc3ccccc3o1)CC2 (stereo not drawn)
CC50 [1]: 17.7 µM (active) | IC50 (cells): 39.6 µM (active)

Cc1cc(O)nc(SCC(=O)Nc2ccc(F)cc2)c1C#N
IC50 (Leucine aminopeptidase): 4.1 µM (active)

O=C(/C=C/c1ccc2c(c1)OCO2)NCCSCc1ccc(Cl)cc1Cl
EC50 [2]: 4.94 µM (active)

O=C1CCSc2ccc(Cl)cc2N1Cc1cccc(Cl)c1
CC50 [1]: 35.5 µM (active) | IC50 (cells): 42.8 µM (active)

Cc1cc(C)nc(SCc2nnc(SCC(=O)Nc3ccc(C)c(C)c3)n2Cc2ccco2)n1
EC50 [2]: 4.05 µM (active)

Oc1ccccc1Nc1nc(NCC2CCCO2)c2ccccc2n1 (stereo not drawn)
CC50 [3]: 30.4 µM (active)

CC(C)(C)Cc1nc2ccccc2n1CCc1ccccc1
EC50 [4]: > 260 µM (inactive) | EC50 [5]: 1.06 µM (active) | EC50 [2]: 7.13 µM (active)

CCOc1cc(CNc2ccccc2)cc(Br)c1OCC(=O)NC(C)(C)C
EC50 [2]: 15.4 µM (active)

COc1ccc2sc(N3C(=O)C4CC=C(C)CC4C3=O)nc2c1 (stereo not drawn)
IC50 (Leucine aminopeptidase): 35 µM (active)

CCOc1ccc(Nc2nc(Cc3nnc(SCC(=O)NCc4ccco4)n3CC)cs2)cc1
IC50 (Leucine aminopeptidase): 28.1 µM (active)

Cc1cc2nc(-c3ccc(NC(=O)C(C)C)cc3)oc2cc1C
IC50 (cells): 39.1 µM (active)

Cc1ccc(C)c(N2CCN(C(=O)Cc3cn(C)c4ccccc34)CC2)c1
EC50 [2]: 9.19 µM (active)

CCN(c1ccccc1)S(=O)(=O)c1ccc(OC)c(NC(=O)Cc2ccccc2OC)c1
CC50 [1]: > 50 µM (active) | IC50 (cells): 35 µM (active)

COc1ccc(C(=O)Nc2cc(Cl)ccc2-c2nnn[nH]2)cc1
IC50 (Hexokinase): 10.9 µM (active)

COc1ccc(C(=O)Nc2cc(Br)ccc2C(=O)O)cc1
IC50 (Hexokinase): 6.94 µM (active)

COc1ccc2c(c1)CN(c1cc(Cl)ccc1C(=O)O)C2=O
IC50 (Hexokinase): > 25 µM (inactive)

O=C(Nc1cc(Cl)ccc1C(=O)O)c1cocn1
IC50 (Hexokinase): > 25 µM (inactive)

COc1ccc(NC(=O)c2ccccc2SCc2ccccc2)cc1
IC50 (Hexokinase): > 25 µM (inactive)

Nc1sc(-c2ccccc2)cc1C(=O)N/N=C/c1ccc(Cl)cc1
EC50 (Streptococcus): 4.54 µM (active) | CC50 [1]: > 50 µM (active) | IC50 (cells): 35.7 µM (active) | EC50 (Streptokinase A): > 150 µM (not active) | EC50 [6]: 3.46 µM (active)

COc1cc(/C(C)=N/NC(=O)Cc2c(C)n[nH]c2O)ccc1O
IC50 (Leucine aminopeptidase): 34.1 µM (active) | IC50 [7]: 69.8 µM (active) | IC50 (Large T antigen): 13 µM (active) | AC50 [8]: 4.03 µM (active)

O=C(O)c1cc(/C=N\O)ccc1OCc1ccccc1
IC50 (Leucine aminopeptidase): 16.4 µM (active)
